# Earlier results, collected in US6458389B1 (priority 1997, dated 2002).
# Like-named read-outs stand apart in the source and are kept apart here.
# How the values were obtained:
# mice = mice treated orally, toxic dose of 70 mg/kg
# rats = settings: rat, in vivo, iv
compound,measurement,setting,value
N.N.[Cl][Pt][Cl] [cisplatin],Electron microscope analysis of tissues (kidneys),48 hours after oral administration,only slight changes in the kidneys
same,Electron microscope analysis of tissues (kidneys),intravenous administration,symptoms of nephrotoxicity are observable
same,Histopathological change in the kidneys,mice,No histopathological change in the kidneys
same,"Urea concentrations in the blood, multiplication factor",rats,14
